According to patent US4937232A, “Inhibition of protein kinase C by long-chain bases” (priority 1988, dated 1990):
Several values for one entry are separate records, joined by “and”; a condition that tells them apart may be missing. Identical values can stand only once. Entries after “also recorded” stand apart in the source; their conditions may differ. Like-named read-outs stand apart in the source and are kept apart here.

How the values were obtained:
[1] = test system: HL-60 cells; experiment: PMA-induced adherence (attachment) of HL-60 cells; type: cell-based, human
Procedure: (§1) Cells were centrifuged at 600 g for 3 min, and added at 1×10^5 cells per well in 12-well culture dishes. Medium, PMA, and long-chain bases (prepared as the 1:1 molar complex with fatty acid-free bovine serum albumin) at the indicated concentrations were added for a total volume of 2.0 ml. After the desired times, the cells in suspension were counted and checked for viability (trypan blue exclusion) with a hemacytometer. The attached cells were quantitated by measuring DNA content according to the method of West et al (Anal. Biochem., 147, 289-295, 1985) and by assaying for acid phosphatase according to the method of Schnyder (J. Exp. Med., 148, 434-445, 1978).

[2] = test system: human neutrophils; experiment: Oxygen consumption (oxidative burst) of human neutrophils; type: cell-based; details: for IC50: oxidative burst, PMA activation, read-out: Concentration required for 50% inhibition
Description: Human neutrophils were obtained by continuous flow leukapheresis from normal adults. Residual erythrocytes were removed by hypotonic lysis with a resulting purity of >95% neutrophils. Alternatively peripheral blood was obtained by phlebotomy and neutrophils were isolated by HESPAN (6% Hetastarch, 0.9% NaCl) sedimentaion of erythrocytes, centrifugation through lymphocyte separation medium (9.4% sodium diatrizoate, 6.2% Ficoll), and hypotonic lysis of residual erythrocytes. Isolated cells were resuspended in phosphate buffered saline (PBS)-glucose, containing 0.6 mM CaCl2, 2.6 mM KCl, 1.5 mM KH2 PO4, 0.5 mM MgCl2, 136 mM NaCl, 8 mM Na2 HPO4, 5.5 mM glucose.
Oxygen consumption was measured using a Clark-type electrode with YSI model 53 oxygen monitor. Assays were conducted at 37° C. with 6.5×10^6 cells per ml with a total volume of either 2.5 ml or 4 ml. Effectors were injected into the electrode chamber using a Hamilton syringe. Initial slopes after the addition of the stimuli were used for rate calculations. For activators with a lag prior to the onset of the oxidative burst, maximal rates following the lag were used.

[3] = test system: phorbol ester binding site (protein kinase C) of neutrophils; experiment: Cellular [3H]-phorbol dibutyrate binding in neutrophils; parameters: species or system human; details: 50 μM; 15 min
Procedure: Neutrophils (1×10^8 cells/ml) were preincubated with the indicated concentration of sphinganine, palmitic acid, or ceramide for five minutes prior to the addition of 50 nM (final concentration) of [^3 H]-phorbol dibutyrate (specific activity of 8.3 Ci/mMole). The cells were incubated an additional 15 min. in a shaking waterbath at 37° C. The incubation mixtures were filtered using an Amicon filtration manifold model VFM-III and washed 5 times with 5 mls of ice-cold PBS-glucose. The filters were counted using a Beckman LS7000 scintillation counter.

[4] = test system: protein kinase C; experiment: Triton X-100 mixed micellar assay for protein kinase C activity; type: biochemical, rat; details: mixed micellar assay
Procedure: Protein kinase C was partially purified from rat brain as described by Hanrun et al (J. Biol. Chem., 260, 10043, 1985), which is hereby incorporated by reference.
Protein kinase C was assayed with Triton X-100 mixed micelles as described by Hanrun et al, (ibid.), Sphingosine was dried down with the lipid cofactors.

[5] = test system: human neutrophils; details: cited from earlier work
[6] = test system: HL-60 cells; experiment: HL-60 cell growth and viability; type: cell-based, human; details: Homo sapiens, HL-60, 24 h, read-out: inhibition of growth of HL-60 cells
Procedure: (§2) The HL-60 cells (obtained from the American Type Culture Collection, ATCC CCL240) were grown at 37° as a suspension culture in 175 cm^2 Nunc tissue culture flasks (Vangard International, Neptune, N.J.). The cells were subcultured at a density of 0.25×10^6 cells/ml and used between passage numbers 30 and 40.
as §1

[7] = HL-60 cell growth and viability; type: cell-based, human; details: human, hl-60 cells, 8 nM PMA, 24 h
Procedure: as §2, §1

[8] = test system: HL-60 cells; experiment: Acid phosphatase activities of suspended and attached HL-60 cells; type: cell-based, human; details: 8 nM PMA, 0 μM sphinganine
Procedure: as §1

[9] = test system: human neutrophils; experiment: [32P]-phosphate incorporation into TCA-precipitable material of neutrophils; type: cell-based; details: PMA (1 μM)
Procedure: Neutrophils (1.4×10^8 cells) were preincubated in with 0.5 mCi Na2 H^32 PO4 in buffer containing […] NaCl, 5.56 mM glucose, 10 mM Hepes, and 0.33 mM CaCl2 for a total of 1 hr at 37° C. in a shaking waterbath. Excess unbound counts were removed by centrifugation and resuspension, repeated five times. The cells were then divided into 4 treatment groups (see RESULTS below) containing approximately 3.5×10^7 cells each. All groups were incubated at 37° C. in a shaking waterbath for the same total time. Some samples were incubated 10 min. with sphinganine (40 μM) prior to addition of 1 μM PMA (final concentration), with which they were incubated for an additional 15 min. The reaction was stopped by addition of an equal volume of boiling SDS dissociation buffer (9% SDS, 1% mercaptoethanol, 15% glycerol, 30 mM Tris, pH 7.8). The samples were run on a 12% SDS-polyacrylamide gel using the method of Rudolph and Krueger (Adv. Cyclic Nucleotide Res. 101, 107-133, 1979). The gels were dried using a Bio-Rad model 2400 Gel Slab Dryer. Autoradiography was performed on the dried gels using Kodak X-omat X-ray film and Dupont Cronex intensifying screens. The gels were exposed for 12 hrs at -70° C.
Alternatively, neutrophils were preincubated as described above using 0.1 mCi of ^32 P labeled phosphate. The cells were broken by 5 min. of sonication using an Ultramet III waterbath sonicator, and 5% (final concentration) trichloroacetic acid was added to each sample. […] The precipitate was filtered and washed extensively using an Amicon filtration system and counted using a Beckman LS7000 scintillation counter.

[10] = test system: HL-60 cells; experiment: Morphology and marker enzymes (ANA esterase, acid phosphatase) of HL-60 cells on day 3; type: cell-based, human; details: 8 nM PMA, 0 μM sphinganine, 3 days
Description: Expression of most other signs of HL-60 cell differentiation requires longer time periods after treatment with PMA. For these experiments, the cells were examined on day 3 for adherence and acid phosphatase activity (Table IV) and morphology and the marker enzymes alpha-naptholacetate (ANA) esterase and acid phosphatase (Table V).

With Ceramide the “inhibition of PMA-induced attachment” value ([1]; 8 nM PMA) was “not inhibitory”, the IC50 [2] was greater than 100 µM and the “displacement of [3H]-phorbol dibutyrate” value [3] was 18%. For the same molecule, the “inhibition of protein kinase C (specificity)” value [4] was “did not activate or inhibit” and the “inhibition of protein kinase C (specificity)” value ([4]; listed as ceramide) was “without effect; also recorded: not to be inhibitors”.

For `NCCNS(=O)(=O)c1cccc2cnccc12` [H-9], the “inhibition of the respiratory burst in human neutrophils” value [5] is listed as “incapable of inhibiting”.

Molecule `CCCCCCCCCCCCCC(=O)O[C@@H]1[C@@H](C)[C@@]2(O)[C@@H](C=C(CO)C[C@]3(O)C(=O)C(C)=C[C@@H]23)[C@@H]2C(C)(C)[C@]12OC(C)=O` [PMA, Phorbol 12-myristate 13-acetate, reference compound] has an inhibition at 0.008 µM [6] of 70%, a viability at 24 h, 0.008 µM ([7]; 0 μM sphinganine, read-out: Percent viability of suspended cells) of 60% and a viability at 24 h, 0.008 µM ([7]; read-out: % Viability) of 80%. The “Acid phosphatase activity, Adherent” value ([8]; 24 h) was 0.52 ± 0.01 nmol/h/dish, the “Acid phosphatase activity, Suspended” value ([8]; 24 h) was 0.11 ± 0.05 nmol/h/dish and the “Adherence (% of total)” value ([8]; 24 h) was 83 % of total. For the same molecule, the “Acid phosphatase activity, Adherent” value ([8]; 72 h) was 2.20 ± 0.09 nmol/h/dish, the “Acid phosphatase activity, Adherent (%)” value ([8]; 72 h) was 98% and the “Acid phosphatase activity, Suspended” value ([8]; 72 h) was 0.05 ± 0.01 nmol/h/dish. The “number of adherent cells” value ([1]; 8 nM PMA alone, 24 h) was 0.76 ×10^5, the “Adherent cells (%)” value ([1]; 8 nM PMA, 0 μM sphinganine, 72 h) was 96% and the “% Adherence” value ([1]; 8 nM PMA, 24 h) was 61% and 61.3 ± 1.0%. The “RATE of oxygen consumption, NO SPHINGANINE” value ([2]; activator alone) was 4.3 nmols O2 consumed/min/10^6 cells, the “[32P]-phosphate incorporation into TCA-precipitable material” value [9] was 4912 COUNTS PER MINUTE and the Acid phosphatase ([10]; adherent cells) was 0.60 nmol/h/105 cells. It also gave an Acid phosphatase ([10]; suspended cells) of 0.30 nmol/h/105 cells.

In the case of `CC1CNCCN1S(=O)(=O)c1cccc2cnccc12` (stereo not shown) [H-7], the “inhibition of the respiratory burst in human neutrophils” value [5] is given as “incapable of inhibiting”.

In the case of `CCCCCCCCCCCCCCCC(=O)O` [Palmitic acid, reference compound], the IC50 ([2]; Homo sapiens, Neutrophil) is reported as greater than 100 µM and the “displacement of [3H]-phorbol dibutyrate” value [3] is reported as 3%.
